Experimental data from patent publication US20050026827A1, “Octapeptide bombesin analogs” (Societe de Conseils de Recherches et d'Applications …, priority 1987, published 2005).
“Also recorded” adds a separate entry of the source.

Legend:
[1] = system: rat anterior pituitary cells; experiment: Growth hormone release from primary culture of rat anterior pituitary cells (agonist potency); type: cell-based; conditions: doses as high as 0.1 mM
Method: (§1) Phase 7—Inhibition of Growth Hormone Release
(§2) Anterior pituitaries from adult male rats, weighing 200-250 g and housed under controlled conditions (lights on from 0500-1900 h), were dispersed using aseptic technique by a previously described trypsin/DNase method (Heiman et al., Endocrinology, 1985, 116, 410) derived from other methods (Hoefer et al., Mol. Cell. Endocrinol., 1984, 35, 229).
(§3) The dispersed cells were diluted with sterile-filtered Dulbecco's modified Eagle medium (MEM) (Gibco Laboratories, Grand Island, N.Y. (GIBCO)), which was supplemented with fetal calf serum (2.5%; GIBCO), horse serum (3%; GIBCO), fresh rat serum (10% stored on ice for no longer than 1 h) from the pituitary donors, MEM nonessential amino acids (1%; GIBCO), gentamycin (10/mg/mL; Sigma) and nystatin (10,000 U/mL; GIBCO). The cells were counted with a hemacytometer (approximately 2,000,000 cells per pituitary) and randomly plated at a density of 200,000 per well (Co-star cluster 24; Rochester Scientific Co., Rochester, N.Y.). […]
(§4) Growth hormone (GH) in plasma and media was measured by a standard double antibody radioimmunoassay using components supplied by the NIDDK and the National Hormone and Pituitary Program, University of Maryland School of Medicine. […] Potencies and 95% confidence intervals were calculateds by 4-point assay (Pugsley, Endocrinology, 1946, 39, 161). […]

[2] = system: rat anterior pituitary cells; type: cell-based; conditions: vs 1 nM GRF(1-29)NH2; read-out: IC50 (antagonist of GRF-stimulated GH secretion)
Method: as §1, §2, §3, §4

[3] = molecular target: adenylate cyclase activity in rat anterior pituitary homogenates; conditions: Robberecht et al.; cited from earlier work

Molecule | agonist activity in the potency assay (in words) [1] | IC50 [2] | IC50 [3]
CC[C@H](C)[C@H](NC(=O)[C@H](C)NC(=O)[C@H](CC(=O)O)NC(=O)[C@H](C)NC(=O)[C@@H](N)Cc1ccc(O)cc1)C(=O)N[C@@H](Cc1ccccc1)C(=O)N[C@H](C(=O)N[C@@H](CC(N)=O)C(=O)N[C@@H](CO)CN[C@@H](Cc1ccc(O)cc1)C(=O)N[C@@H](CCCNC(=N)N)C(=O)N[C@@H](CCCCN)C(=O)N[C@H](C(=O)N[C@@H](CC(C)C)C(=O)NCC(=O)N[C@@H](CCC(N)=O)C(=O)N[C@@H](CC(C)C)C(=O)N[C@@H](CO)C(=O)N[C@@H](C)C(=O)N[C@@H](CCCNC(=N)N)C(=O)N[C@@H](CCCCN)C(=O)N[C@@H](CC(C)C)C(=O)N[C@@H](CC(C)C)C(=O)N[C@@H](CCC(N)=O)C(=O)N[C@@H](CC(=O)O)C(=O)N[C@H](C(=O)N[C@@H](CCSC)C(=O)N[C@@H](CO)C(=O)N[C@@H](CCCNC(=N)N)C(N)=O)[C@@H](C)CC)C(C)C)[C@@H](C)O [VIII, [Ser^9ψ[CH2NH]Tyr^10]-GRF(1-29)NH2] | inactive; also recorded: all trace of agonist activity was lost | ~10 µM | 
[N-Ac-Tyr^1, D-Arg^2]GRF(1-29)NH2 |  |  | ~1 µM
